Key:
[1] = toxicity tests on mice; type: in vivo; details: mouse, in vivo, ip, intraperitoneal administration, calculated from LD0 and LD100
Procedure: (§1) 5, 10 or 20% of active agent were suspended in 0.1% agar gel, and the obtained homogeneous suspensions were injected intraperitoneally into mice, or were administered into the stomach of the animals via a stomach tube. The animals were kept under observation for one week after a single treatment, and the toxicity data were evaluated on the basis of the percentage deaths observed in this period.

[2] = tested on: mice; test: toxicity tests on mice; type: in vivo; details: single treatment, one week observation
Procedure: as §1

[3] = oral administration (stomach tube)

Compound	LD50 at 168 h [1]	LD0 ([2]; intraperitoneal administration)	LD100 ([2]; intraperitoneal administration)	LD0 [2, 3]	LD100 [2, 3]
CCOC(=O)C(C#N)N=Nc1cccc(Cl)c1 (centres unmarked) [C2 H5 -- H Cl H]	400 mg/kg	200 mg/kg	600 mg/kg	6000 mg/kg	6000 mg/kg
CCOC(=O)C(C#N)N=Nc1ccc(Cl)cc1 (centres unmarked) [C2 H5 -- H H Cl]	400 mg/kg	200 mg/kg	600 mg/kg	6000 mg/kg	6000 mg/kg
CC(C)OC(=O)C(C#N)N=Nc1cccc(Cl)c1 (centres unmarked) [i-C3 H7 -- H Cl H]	500 mg/kg	300 mg/kg	800 mg/kg	6000 mg/kg	6000 mg/kg
CC(C)OC(=O)C(C#N)N=Nc1ccc(Cl)cc1 (centres unmarked) [i-C3 H7 -- H H Cl]	600 mg/kg	400 mg/kg	1000 mg/kg	6000 mg/kg	6000 mg/kg
CCCOC(=O)C(C#N)N=Nc1cccc(Cl)c1 (centres unmarked) [n-C3 H7 -- H Cl H]	500 mg/kg	300 mg/kg	800 mg/kg	6000 mg/kg	6000 mg/kg
CCCOC(=O)C(C#N)N=Nc1ccc(Cl)cc1 (centres unmarked) [n-C3 H7 -- H H Cl]	600 mg/kg	400 mg/kg	1000 mg/kg	6000 mg/kg	6000 mg/kg
CCCCOC(=O)C(C#N)N=Nc1cccc(Cl)c1 (centres unmarked) [n-C4 H9 -- H Cl H]	800 mg/kg	500 mg/kg	1000 mg/kg	6000 mg/kg	6000 mg/kg
CCCCOC(=O)C(C#N)N=Nc1ccc(Cl)cc1 (centres unmarked) [n-C4 H9 -- H H Cl]	800 mg/kg	500 mg/kg	1000 mg/kg	6000 mg/kg	6000 mg/kg
CCCCOC(=O)C(C#N)N=Nc1ccc([N+](=O)[O-])cc1 (centres unmarked) [n-C4 H9 -- H H NO2 --]	600 mg/kg	400 mg/kg	800 mg/kg	6000 mg/kg	6000 mg/kg
CCCCOC(=O)C(C#N)N=Nc1cccc([N+](=O)[O-])c1 (centres unmarked) [n-C4 H9 -- H NO2 -- H]	600 mg/kg	400 mg/kg	800 mg/kg	6000 mg/kg	6000 mg/kg
